Here are results for 7 compounds from patent publication US6703506B2, “Amino acid ester containing azole antifungals” (Janssen Pharmaceutica, N.V., priority 1997, dated 2004).

Data set [1] is described as follows: Chemical stability (open glass jar, 40° C., 75% relative humidity). Type of data set: physicochemical. To be noted: 50 mg, after one week. The protocol: After one week, the amount of test compound remaining was determined.
The subject of data set [2] is Aspergillus fumigatus. The data set can be described thus: Determination of fungal susceptibility (MIC). Type of data set: cell-based. The following applies: CYG medium, 5 days at 30° C., growth to 35% of control or less. The protocol:
(§1) A panel of Candida isolates plus single isolates of the dermatophytes Microsporum canis, Trichophyton rubrum and T. mentagrophytes; Aspergillus fumigates, and Cryptococcus neoformans were used to evaluate the activity of the test compounds in vitro. Inocula were prepared as broth cultures (yeasts) or as suspensions of fungal material made from agar slope cultures (moulds). The test compounds were pipetted from DMSO stock solution into water to provide a series of 10-fold dilutions. The fungal inocula were suspended in the growth medium CYG (F. C. Odds, Journal of Clinical Microbiology, 29, (2735-2740, 1991) at approximately 50,000 colony-forming units (CFU) per ml and added to the aqueous test drugs. The cultures were set up in the 96 wells of plastic microdilution plates and they were incubated for 2 days at 37° C. (Candida spp.) or for 5 days at 30° C. (other fungi). Growth in the microcultures was measured by their optical density (OD) measured at a wavelength of 405 nm. The OD for cultures with test compounds was calculated as a percentage of the control, drug-free OD. Inhibition of growth to 35% of control or less was recorded as significant inhibition.
(§2) Minimal inhibitory concentration (MICs; in 10^−6 M) of intermediate 2 as the major metabolite and some of the compounds of formula (I) for Candida glabrata, Candida krusel, Candida parapsilosis, Candida albicans, Candida kefyr, Candida tropicalis, Microsporum canis, Trichophyton rubrum, Trichophyton mentagrophytes, Cryptococcus neoformans, Aspergillus fumigatus are listed in table 8.

Data set [3] concerns Candida albicans. The data set can be described thus: Determination of fungal susceptibility (MIC). Type of data set: cell-based. The following applies: CYG medium, 2 days at 37° C., growth to 35% of control or less. The protocol:
as §1, §2

Another data set has as its system Candida glabrata. Description: Determination of fungal susceptibility (MIC). It counts as cell-based. To be noted: CYG medium, 2 days at 37° C., growth to 35% of control or less. The protocol:
as §1, §2

The test system of the next data set is Candida kefyr. Description: Determination of fungal susceptibility (MIC). Type of data set: cell-based. The following applies: CYG medium, 2 days at 37° C., growth to 35% of control or less. The protocol:
as §1, §2

In a further data set the test system is Candida krusei. Description: Determination of fungal susceptibility (MIC). Type of data set: cell-based. The following applies: CYG medium, 2 days at 37° C., growth to 35% of control or less. The protocol:
as §1, §2

A further data set has as its system Candida parapsilosis. Description: Determination of fungal susceptibility (MIC). To be noted: CYG medium, 2 days at 37° C., growth to 35% of control or less. It counts as cell-based. The protocol: as §1, §2
The next data set has as its system Candida tropicalis. Description: Determination of fungal susceptibility (MIC). It counts as cell-based. The following applies: CYG medium, 2 days at 37° C., growth to 35% of control or less. The protocol: as §1, §2
For the next data set, the system named is Cryptococcus neoformans. The data set can be described thus: Determination of fungal susceptibility (MIC). Type of data set: cell-based. The following applies: CYG medium, 5 days at 30° C., growth to 35% of control or less. The protocol: as §1, §2
The subject of a further data set is Microsporum canis. The data set can be described thus: Determination of fungal susceptibility (MIC). Type of data set: cell-based. To be noted: CYG medium, 5 days at 30° C., growth to 35% of control or less. The protocol:
as §1, §2

Data set [4] concerns Trichophyton mentagrophytes. Description: Determination of fungal susceptibility (MIC). Type of data set: cell-based. The following applies: CYG medium, 5 days at 30° C., growth to 35% of control or less. The protocol:
as §1, §2

A further data set deals with Trichophyton rubrum. Description: Determination of fungal susceptibility (MIC). Type of data set: cell-based. The following applies: CYG medium, 5 days at 30° C., growth to 35% of control or less. The protocol: as §1, §2
The subject of data set [5] is Aspergillus fumigatus. Description: Disseminated aspergillosis in guinea-pigs. To be noted: for CFU/g (liver): culture-positive livers post mortem; for % neg (total percentage culture-negative deep tissues): liver, spleen, kidney, lung and brain. It counts as in vivo. The protocol:
(§3) Specific pathogen-free (SPF) guinea-pigs (weighing 400-500 g) were used in all experiments. A catheter was placed into the left jugular vein of the animals that were treated by intravenous infusion, the vein was ligated, and the catheter was connected to a microprocessor-controlled infusion pump. The animals were infected with Aspergillus fumigatus (4,000 CFU/g body weight) or with Candida albicans (40,000 CFU/g body weight) either via the lateral vein of the penis or via the implanted catheter. Intravenous treatments (5 mg/kg/day) began 1 hour after infection. The test formulations were then administered on subsequent days as two, 1 hour infusions daily, separated by a period of 5 hours, for a total of 19 infusions or 9.5 days. Oral treatments with the test compounds (5 mg/kg/day) begun 1 hour after infection and were repeated twice daily up to the tenth day after infection (a total of 19 treatments. For each group of tested animals (number of tested animals per group given in column “N”), the mean survival time (MST) in days was recorded as well as the % survivors (% surv). Animals of each group which died during the experiment and those that survived the experiment and were killed, were investigated for counts of Aspergillus fumigatus and Candida albicans in deep tissue (liver, spleen, kidney, lung and brain) post mortem. The remaining CFU/g in the culture-positive livers was measured and expressed in table 9 (after intravenous treatment) and table 10 (after oral treatment) as mean log10 CFU/g. The columns “%neg” in tables 9 and 10 express the total percentage culture-negative deep tissues after the treatment.

The subject of data set [6] is Candida albicans. The data set can be described thus: Disseminated candidosis in guinea-pigs. It counts as in vivo. To be noted: for CFU/g (liver): culture-positive livers post mortem; for % neg (total percentage culture-negative deep tissues): liver, spleen, kidney, lung and brain. The protocol: as §3
The mark [7] stands for this setting: i.v. treatment 5 mg/kg/day, 19 infusions, 9.5 days.
[8] abbreviates: oral treatment 5 mg/kg/day, twice daily, 19 treatments.

In the case of `CC(C)CC(N)C(=O)OC(C)C(C)n1ncn(-c2ccc(N3CCN(c4ccc(OCC5COC(Cn6cncn6)(c6ccc(F)cc6F)O5)cc4)CC3)cc2)c1=O` (centres unmarked) [Compound 21], the “Stability (amount of test compound remaining)” value in data set [1] turned out to be 100.3%. Besides, the MIC is recorded as 1 10^−6 M against Aspergillus fumigatus [2]; 0.1 10^−6 M against Candida albicans [3]; 10 10^−6 M with Candida glabrata; 0.1 10^−6 M against Candida kefyr; 1 10^−6 M against Candida krusei; 0.1 10^−6 M with Candida parapsilosis. The MIC with Candida tropicalis was 0.1 10^−6 M; against Cryptococcus neoformans it was 1 10^−6 M; with Microsporum canis, 1 10^−6 M; in [4], 1 10^−6 M; with Trichophyton rubrum, <0.1 10^−6 M. For the same compound, the “CFU/g (liver)” value in the data set with Aspergillus fumigatus [5] (i.v. treatment 5 mg/kg/day) came out at 3.7 mean log10 CFU/g; in the data set with Aspergillus fumigatus [5] (oral treatment 5 mg/kg/day), 3.0 mean log10 CFU/g; in the data set with Candida albicans [6] (i.v. treatment 5 mg/kg/day) it was 2.7 mean log10 CFU/g; in the data set with Candida albicans [6] (oral treatment 5 mg/kg/day), 0 mean log10 CFU/g. Besides, the “% surv (% survivors)” value stood at 0% in the data set with Aspergillus fumigatus [5] (setting [7]), 40% with Aspergillus fumigatus [5] (setting [8]), 16.7% in the data set with Candida albicans [6] (setting [7]) and 90% with Candida albicans [6] (setting [8]). In addition, the “MST (mean survival time)” value with Aspergillus fumigatus [5] (setting [7]) was determined as 5.7 days; in the data set with Aspergillus fumigatus [5] (setting [8]), 7.0 days; in the data set with Candida albicans [6] (setting [7]), 6.5 days; with Candida albicans [6] (setting [8]), 9.6 days. Besides, the “% neg (total percentage culture-negative deep tissues)” value was found to be 46% in the data set on Aspergillus fumigatus [5] (i.v. treatment 5 mg/kg/day), 55% with Aspergillus fumigatus [5] (oral treatment 5 mg/kg/day), 75% with Candida albicans [6] (i.v. treatment 5 mg/kg/day) and 83% in the data set with Candida albicans [6] (oral treatment 5 mg/kg/day).
For the compound “[2S-[2α,4α[(R*,R*)]]]-4-[4-[4-[4-[[2-(2,4-difluorophenyl)-2-(1H-1,2,4-triazol-1-ylmethyl)-1,3-dioxolan-4-yl]methoxy]-phenyl]-1-piperazinyl]phenyl]-2,4-dihydro-2-(2-hydroxy-1-methylpropyl)-3H-1,2,4-triazol-3-one [Interm. 2a]”, the MIC was 1 10^−6 M in the data set on Aspergillus fumigatus [2]; 10 10^−6 M against Candida albicans [3]; 10 10^−6 M in the data set with Candida glabrata; <0.1 10^−6 M in the data set with Candida kefyr; 1 10^−6 M with Candida krusei; 1 10^−6 M in the data set with Candida parapsilosis. In addition, the MIC (in the data set with Candida tropicalis; against Cryptococcus neoformans; with Microsporum canis; in data set [4]; in the data set with Trichophyton rubrum) was 1 10^−6 M in each case.
As to `C[C@H](OC(=O)CCN)[C@H](C)n1ncn(-c2ccc(N3CCN(c4ccc(OC[C@@H]5CO[C@@](Cn6cncn6)(c6ccc(F)cc6F)O5)cc4)CC3)cc2)c1=O.O.O=C(O)C[C@H](O)C(=O)O.O=C(O)C[C@H](O)C(=O)O` (relative stereo) [Compound 12, [2S-[2α,4α-[(R*,R*)]]]-2-[4-[4-[4-[4-[[2-(2,4-difluorophenyl)-2-(1H-1,2,4-triazol-1-ylmethyl)-1,3-dioxolan-4-yl]methoxy]phenyl]-1-piperazinyl]phenyl]-4,5-dihydro-5-oxo-1H-1,2,4-triazol-1-yl]-1-methylpropyl β-alanine (S)-hydroxybutanedioate(1:2) monohydrate], the “Stability (amount of test compound remaining)” value in data set [1] is on record as 96.1%.
`CCN(CC)CCC(=O)OC(C)C(C)n1ncn(-c2ccc(N3CCN(c4ccc(OCC5COC(Cn6cncn6)(c6ccc(F)cc6F)O5)cc4)CC3)cc2)c1=O.O.O=C(O)C=CC(=O)O` (centres unmarked) [Compound 15]: the “Stability (amount of test compound remaining)” value in data set [1] was 90.4%.
Consider `CC(C)C(N)C(=O)OC(C)C(C)n1ncn(-c2ccc(N3CCN(c4ccc(OCC5COC(Cn6cncn6)(c6ccc(F)cc6F)O5)cc4)CC3)cc2)c1=O` (centres unmarked) [Compound 18], for which the “Stability (amount of test compound remaining)” value in data set [1] is recorded as 101.7%. The MIC with Aspergillus fumigatus [2] was 1 10^−6 M; against Candida albicans [3] it was <0.1 10^−6 M; in the data set on Candida glabrata, 10 10^−6 M; in the data set on Candida kefyr, <0.1 10^−6 M; in the data set on Candida krusei, 1 10^−6 M; with Candida parapsilosis, <0.1 10^−6 M. Besides, the MIC with Candida tropicalis is <0.1 10^−6 M; in the data set on Cryptococcus neoformans it was 1 10^−6 M; with Microsporum canis, 10 10^−6 M; in [4], 1 10^−6 M; against Trichophyton rubrum it was 10 10^−6 M. Besides, the “CFU/g (liver)” value with Aspergillus fumigatus [5] (i.v. treatment 5 mg/kg/day) was determined as 3.1 mean log10 CFU/g; in the data set with Aspergillus fumigatus [5] (oral treatment 5 mg/kg/day), 3.2 mean log10 CFU/g; in the data set with Candida albicans [6] (i.v. treatment 5 mg/kg/day), 0 mean log10 CFU/g; with Candida albicans [6] (oral treatment 5 mg/kg/day), 0 mean log10 CFU/g. Also, the “% surv (% survivors)” value with Aspergillus fumigatus [5] (setting [7]) stood at 16.7%; in the data set with Aspergillus fumigatus [5] (setting [8]), 0%; in the data set with Candida albicans [6] (setting [7]), 66.7%; in the data set with Candida albicans [6] (setting [8]), 100%. Moreover, the “MST (mean survival time)” value was found to be 5.3 days with Aspergillus fumigatus [5] (setting [7]), 5.2 days with Aspergillus fumigatus [5] (setting [8]), 9.2 days in the data set on Candida albicans [6] (setting [7]) and 10 days in the data set with Candida albicans [6] (setting [8]). Also, the “% neg (total percentage culture-negative deep tissues)” value is 29% in the data set with Aspergillus fumigatus [5] (i.v. treatment 5 mg/kg/day), 20% in the data set on Aspergillus fumigatus [5] (oral treatment 5 mg/kg/day), 92% in the data set with Candida albicans [6] (i.v. treatment 5 mg/kg/day) and 68% in the data set with Candida albicans [6] (oral treatment 5 mg/kg/day).
In the case of `CC(N)C(=O)OC(C)C(C)n1ncn(-c2ccc(N3CCN(c4ccc(OCC5COC(Cn6cncn6)(c6ccc(F)cc6F)O5)cc4)CC3)cc2)c1=O.O.O=C(O)CCC(=O)O` (centres unmarked) [Compound 10], the “Stability (amount of test compound remaining)” value in data set [1] stood at 31.0%.
For `CC(OC(=O)CCN)C(C)n1ncn(-c2ccc(N3CCN(c4ccc(OCC5COC(Cn6cncn6)(c6ccc(F)cc6F)O5)cc4)CC3)cc2)c1=O.O.O=C(O)C(=O)O` (centres unmarked) [Compound 13], the “Stability (amount of test compound remaining)” value in data set [1] was 98.3%.
